Experimental data reported in publication PMC11592477, “Bioengineering the Human Intestinal Mucosa and the Importance of Stromal Support for Pharmacological Evaluation In Vitro” (Cells, 2024).

Columns and labels:
[1] = tested on: epithelial-only (EO) Caco-2 monolayer constructs; assay: Ussing chamber drug permeability, epithelial-only (EO) constructs; type: in vitro ADME, human
[2] = tested on: full thickness (FT) intestinal constructs (Caco-2 on CCD-18co or HDFn stromal compartment); assay: Ussing chamber drug permeability, full-thickness (FT) intestinal constructs; type: in vitro ADME, human
[3] = hydrophilic drugs; in words; ref [14]; cited from earlier work
Caco-2 monolayers = details: hydrophilic drugs; in words; ref [14]; cited from earlier work
MDR1 = MDR1 (Homo sapiens, UniProt P08183); assay: MDR1-mediated Rhodamine 123 transport in EO constructs (Ussing chamber); details: EO constructs supplemented with KGF 0.5–25 ng.mL−1, absence of verapamil
Chain of MDR1 (P08183 whole entry): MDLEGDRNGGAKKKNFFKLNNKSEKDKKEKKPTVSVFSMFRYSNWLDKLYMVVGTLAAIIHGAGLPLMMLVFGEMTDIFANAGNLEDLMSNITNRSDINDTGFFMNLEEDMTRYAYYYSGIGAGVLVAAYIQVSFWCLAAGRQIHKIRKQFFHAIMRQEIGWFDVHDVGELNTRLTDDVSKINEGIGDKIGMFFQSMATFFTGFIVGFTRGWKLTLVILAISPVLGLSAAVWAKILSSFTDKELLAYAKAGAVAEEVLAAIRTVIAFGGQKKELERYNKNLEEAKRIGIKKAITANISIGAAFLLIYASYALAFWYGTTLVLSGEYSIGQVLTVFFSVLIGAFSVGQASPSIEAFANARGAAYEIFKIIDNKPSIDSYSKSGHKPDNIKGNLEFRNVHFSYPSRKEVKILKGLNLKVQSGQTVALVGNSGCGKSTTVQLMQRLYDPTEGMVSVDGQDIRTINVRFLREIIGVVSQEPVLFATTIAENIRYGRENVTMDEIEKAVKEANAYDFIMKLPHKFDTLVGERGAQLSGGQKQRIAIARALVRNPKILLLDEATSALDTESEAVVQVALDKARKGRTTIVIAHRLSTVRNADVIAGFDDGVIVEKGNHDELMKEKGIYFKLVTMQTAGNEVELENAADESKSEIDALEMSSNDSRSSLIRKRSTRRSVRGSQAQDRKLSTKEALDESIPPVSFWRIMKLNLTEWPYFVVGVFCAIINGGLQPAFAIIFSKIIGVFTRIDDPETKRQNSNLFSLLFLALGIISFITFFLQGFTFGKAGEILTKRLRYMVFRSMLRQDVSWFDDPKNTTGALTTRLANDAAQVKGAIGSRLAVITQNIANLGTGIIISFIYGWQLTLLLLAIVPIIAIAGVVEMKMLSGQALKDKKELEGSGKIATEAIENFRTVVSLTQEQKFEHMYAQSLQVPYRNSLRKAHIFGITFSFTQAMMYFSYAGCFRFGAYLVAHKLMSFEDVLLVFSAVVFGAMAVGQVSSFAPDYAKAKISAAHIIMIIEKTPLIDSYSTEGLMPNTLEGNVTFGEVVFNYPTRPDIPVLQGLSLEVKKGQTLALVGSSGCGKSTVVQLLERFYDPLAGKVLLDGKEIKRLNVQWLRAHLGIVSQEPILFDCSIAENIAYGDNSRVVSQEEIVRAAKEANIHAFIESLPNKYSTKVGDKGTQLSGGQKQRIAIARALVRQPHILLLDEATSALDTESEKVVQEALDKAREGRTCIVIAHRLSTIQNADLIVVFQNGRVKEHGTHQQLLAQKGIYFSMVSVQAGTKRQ

Aminopeptidase = Aminopeptidase activity assay of KGF-supplemented EO constructs; type: cell-based, human; details: with increasing KGF concentration (0.5–25 ng.mL−1)
Protocol: (§1) For conditioned medium studies, Caco-2 monolayers were established as above, but after 48 h, the medium was replenished with a 1:1 mix of fresh culture medium and conditioned medium obtained from 80% confluent fibroblast cultures (HDFn or CCD-18co). The conditioned medium was centrifuged to remove cellular debris and sterile filtered before addition to EO cultures. Similarly, KGF-supplemented cultures were seeded in standard conditions and supplemented with a range of concentrations (0.5–25 ng·mL^−1) of KGF following the establishment of cultures for 48 h. Both conditioned and KGF-supplemented media were replenished at each media change: every two days.
Aminopeptidase activity was quantified through the catalyzation of the cleavage of L-slsninr-4-nitroanilide hydrochloride into the breakdown product 4-nitranline. This was achieved through the addition of 0.5 mL of prewarmed 1.5 mM L-analine-4-nitiroanilide hydrochloride solution (Sigma-Aldrich, St. Louis, […], USA) to the apical compartment of bioengineered tissue constructs (both EO and FT). The constructs were incubated for 1 h at 37 °C at 100 rpm using an orbital shaker. Following incubation, 100 μL of the cleavage product-containing solution was sampled from each construct and the absorbance was quantified at 405 nm using a BioTek™ ELx800 (Winooski, VT, USA) plate reader. Enzyme activity was expressed as a function of tissue area.

[4] = tested on: epithelial-only (EO) Caco-2 monolayer constructs; assay: qPCR gene expression in KGF-supplemented EO constructs; type: cell-based, human; details: with increasing KGF concentration
Protocol: as §1
EO tissue constructs were lysed in RLT buffer (Qiagen, Manchester, UK) and homogenized through repeated aspiration with a 20-gauge needle. […] The mRNA was suspended in molecular-grade water and stored at −80 °C prior to analysis. mRNA abundance was quantified using a Nanodrop Spectrophotometer […] and 200 ng was reverse-transcribed using the GoScript™ Reverse Transcriptase kit (Promega, Hampshire, UK), as per the manufacturer’s instructions. […] Data were analyzed through normalization to the housekeeping reference genes (GAPDH) using the ΔΔCt method and the fold change was averaged after this normalization.

villin = assay: Immunofluorescence of villin in KGF-supplemented EO constructs; type: cell-based, human; details: with KGF concentration up to 5–25 ng.mL−1
Protocol: as §1
Wax sections were prepared for staining by de-paraffinization in Histo-Clear followed by rehydration from 100% ethanol to PBS. Antigen retrieval was performed in citrate buffer (pH 6, Sigma-Aldrich) at 95 °C for 20 min. Alternatively, EO constructs were prepared through fixation in a 1:1 ice-cold solution of methanol (Sigma-Aldrich) and acetone (Sigma-Aldrich) for 10 min at −20 °C. From this point onwards whole EO constructs and mounted tissue sections were stained in the same manner.
The samples were blocked for 1 h at room temperature in a solution consisting of 10% normal goat serum ([…], Sigma-Aldrich) and 0.1% […] (Sigma-Aldrich) in PBS. […]

[5] = tested on: epithelial-only (EO) Caco-2 monolayer constructs; assay: Transepithelial electrical resistance (TEER) of KGF-supplemented EO constructs; type: cell-based, human; details: with increasing KGF concentration (0.5–25 ng.mL−1)
[6] = FT constructs on intestinal and dermal fibroblast foundation compared with Caco-2 monolayer EO, 100 μM

## COC(=O)c1ccccc1-c1c2ccc(=N)cc-2oc2cc(N)ccc12 [Rhodamine 123]
[1]; EO constructs in dermal fibroblast conditioned medium vs control, 5 μM, 120 min
  apparent permeability (Papp), basal-apical: enhanced
[1]; EO constructs in medium conditioned by intestinal and dermal fibroblasts vs control medium, 5 μM, 120 min
  apparent permeability (Papp), apical-basal: increased
[2]; FT constructs on intestinal fibroblast foundation compared with dermal fibroblast counterpart, absence of verapamil, 5 μM
  apparent permeability (Papp), basal-apical: significantly increased
[2]; FT constructs on intestinal vs dermal fibroblast foundation, regardless of verapamil, 5 μM
  apparent permeability (Papp), apical-basal: no significant difference

## CC1(C)S[C@@H]2[C@H](NC(=O)[C@H](N)c3ccc(O)cc3)C(=O)N2[C@H]1C(=O)O [amoxicillin]
[3]
  absorption in vivo: high
Caco-2 monolayers
  Caco-2 permeability in vitro: low

## CC1=C(C(=O)O)N2C(=O)[C@@H](NC(=O)[C@H](N)c3ccc(O)cc3)[C@H]2SC1 [cefadroxil]
[3]
  absorption in vivo: high
Caco-2 monolayers
  Caco-2 permeability in vitro: low

## N[C@@H](C(=O)N[C@@H]1C(=O)N2C(C(=O)O)=C(Cl)CC[C@H]12)c1ccccc1 [loracarbef]
[3]
  absorption in vivo: high
Caco-2 monolayers
  Caco-2 permeability in vitro: low

## CN(Cc1cnc2nc(N)nc(N)c2n1)c1ccc(C(=O)N[C@@H](CCC(=O)O)C(=O)O)cc1 [methotrexate]
[1]; EO constructs in intestinal fibroblast conditioned medium, 10 μM
  Papp, basal-apical transport (BCRP-mediated): modestly enhanced
[2]; FT co-culture constructs only, to a greater degree with dermal fibroblasts, 10 μM
  Papp, apical-basal transport (RFC1 and PCFT): increased
[2]; FT constructs with dermal fibroblast-based stromal foundation, 10 μM
  Papp, basal-apical transport (BCRP-mediated): increased to the greatest extent

## CC(C)C[C@H](CN)CC(=O)O [pregabalin]
[3]
  absorption in vivo: high
Caco-2 monolayers
  Caco-2 permeability in vitro: low

## Cc1cn([C@H]2C[C@H](N=[N+]=[N-])[C@@H](CO)O2)c(=O)[nH]c1=O [zidovudine]
[3]
  absorption in vivo: high
Caco-2 monolayers
  Caco-2 permeability in vitro: low

## Lucifer yellow
[1]; EO constructs in intestinal fibroblast-conditioned medium vs control, not significant, 100 μM
  permeability (Papp), basal-apical: slight increase
[2]; [6]
  permeability (Papp), apical-basal: significantly increased
  permeability (Papp), basal-apical: significantly increased

B1: keratinocyte growth factor (protein, UniProt P21781 32-194, looked up)
Fibroblast growth factor 7: CNDMTPEQMATNVNCSSPERHTRSYDYMEGGDIRVRRLFCRTQWYLRIDKRGKVKGTQEMKNNYNIMEIRTVAVGIVAIKGVESEFYLAMNKEGKLYAKKECNEDCNFKELILENHYNTYASAKWTHNGGEMFVALNQKGIPVRGKKTKKEQKTAHFLPMAIT
notes: keratinocyte growth factor, soluble mediator secreted by fibroblasts, added exogenously to EO constructs
MDR1
  effect on basal-apical transport of Rhodamine 123: increased
Aminopeptidase
  aminopeptidase activity: increased
[4]
  occludin gene expression (qPCR): decreased
  villin gene expression (qPCR): increased
villin
  immunofluorescent detection of villin: increases
[5]
  TEER: decreased
